Measurements reported in patent publication US20200093764A1, “TREATMENT OF ASTHMA WITH CYSTEAMINE” (CHILDREN'S HOSPITAL MEDICAL CENTER, priority 2017, published 2020).
Values belong to the molecule of their own block, whether it stands above or below them.

Experiments:
Assay type in all cases: in vivo
[1] = test system: WT BALB/c and VNN1 KO mice; experiment: Prophylactic cysteamine treatment in HDM-challenged experimental asthma model (Example 1); conditions: for airway hyper-responsiveness (AHR) development: mice, oral or IP administration, methacholine challenge, FlexiVent dynamic resistance; for asthma development: cysteamine hydrochloride 50 mg/kg i.p. every day, HDM 25 μg i.t. 3 times a week for 3 weeks
From the text: Steroid non-responsive mice (e.g., vanin 1 (VNN1) knock-out (KO) mice) and normal mice (e.g., wild type (WT) BALB/c mice) were used in an experimental asthma model. Since VNN1 KO mice lack tissue cysteamine, these mice were used to determine whether replacement of cysteamine would be sufficient to restore responsiveness to a steroid treatment.
WT BALB/c and VNN1 KO mice were started on cysteamine replacement treatment (e.g., as illustrated in FIG. 1A) one day prior to the start of intratracheal (i.t.) challenges. Mice then received one intraperitoneal (i.p.) injection of cysteamine hydrochloride (50 mg/kg) or saline every day. Mice were challenged 3 times a week for 3 weeks to an allergen (e.g., house dust mite (HDM, 25 μg in 50 μl saline)) or saline. A subset of mice from each group received a corticosteroid (e.g., dexamethasone (3 mg/kg)) treatment during the last 4 days of the experiment.
To determine the effectiveness of the treatment, airway responsiveness was measured as follows. 24 hours after the last challenge, invasive measurements were made with the FlexiVent apparatus (SCIREQ). Mice were anesthetized with ketamine, xylazine, and acepromazine (100, 20, and 10 mg/mL, respectively, mixed at a ratio of 4:1:1). Mouse tracheas were cannulated with a 19-gauge blunt needle, and the mice were ventilated at 150 breaths/min and 3.0 cm H2O positive end-expiratory pressure. Two total lung capacity perturbations were then performed for airway recruitment before baseline measurement, and subsequent methacholine challenges were performed. Dynamic resistance was assessed after exposure to increasing concentrations of aerosolized methacholine (0, 12.5 and 25 mg/mL). The average of the 3 highest dynamic resistance values with a coefficient of determination of 0.9 or greater (as determined by using FlexiVent software) was used to determine the dose-response curve.

[2] = Drug kinetics of cysteamine in mouse serum (Example 4)
From the text: FIG. 4A is a table showing drug kinetics in mouse serum after administration of cysteamine. FIG. 4B is a chart showing the cysteamine concentrations in μmol/L over the time after the ends of cysteamine infusion in minutes.

WT BALB/c mice [3] = experiment: Cysteamine vs. corticosteroid (dexamethasone) in HDM-induced asthma (Example 5)
Method: WT BALB/c mice underwent 6 intratracheal challenges to an allergen (e.g., HDM (25 μg)) to induce asthma development. Control mice underwent 6 intratracheal challenges to saline instead. When asthma was established, a subset of mice received cysteamine (50 mg/kg) treatment for seven days (on challenge days, mice received treatment 30 minutes prior to challenge). A subset of mice received corticosteroid (e.g., dexamethasone) treatment (3 mg/kg) during the last four days.
(§1) To determine the effectiveness of the treatment, airway responsiveness was measured as follows. 24 hours after the last challenge, invasive measurements were made with the FlexiVent apparatus (SCIREQ). Dynamic resistance was assessed after exposure to increasing concentrations of aerosolized methacholine (0, 12.5, and 50 mg/kg).
(§2) To observe Th2/Th17 cytokine production, lung cells were ex vivo stimulated with phorbol 12-myristate 13-acetate (PMA)+ionomycin (0.05 μg/mL and 0.50 m/mL, respectively) for an hour prior to the addition of Brefeldin-A for an additional two and a half hours. Cells were stained with combinations of CD4-FITC, γδT-cell receptor-PE/Cy7, CD3-AF700, CD44-Pacific Blue, and Live/dead-BV510. After fixation and premeabilization cells were intracellularly stained with IL-13-PE, IL-17A-AF647, IFN-γ-PerCP5.5. Image and data acquisition was done on a FACSCanto III and analyzed with FlowJo software.

WT BALB/c mice [4] = experiment: Lower doses of cysteamine (Cystagon) to block allergen-induced asthma exacerbation (Example 3)
Method: Control mice underwent 9 intratracheal challenges to saline instead. Once asthma was established, a subset of mice received cysteamine (e.g., Cystagon®, which corresponds to cysteamine bitartrate) at various doses (6.25, 12.5, 25, or 50 mg/kg) or saline vehicle intraperitoneal (i.p.) treatment 3 times every day for 2 weeks. On the 14th day, all mice received a single HDM recall challenge. Mice received scheduled i.p. treatment prior to airway responsiveness measurement.
as §1, with “challenge” for “challenge,”, “(0, 6.25,” for “(0,”, “12.5, 25,” for “12.5,”
as §2, with “μg/mL,” for “m/mL,”, “2.5” for “two and a half”

WT BALB/c mice [5] = experiment: Oral cysteamine treatment in HDM-induced asthma with recall challenge (Example 6)
Method: Control mice underwent 9 intratracheal challenges to saline instead. Once asthma was established, a subset of mice received cysteamine (6.25 or 12.5 mg/kg) or saline vehicle oral treatment 4 times a day for 2 weeks. On the 14th day, all mice received a single HDM recall challenge. Mice received scheduled oral treatment prior to airway responsiveness measurement. To determine the effectiveness of the treatment, airway responsiveness was measured as follows. 24 hours after the last challenge invasive measurements were made with the FlexiVent apparatus (SCIREQ). Dynamic resistance was assessed after exposure to increasing concentrations of aerosolized methacholine (0, 6.25, 12.5, 25, and 50 mg/kg). Bronchoalveolar lavage was performed by means of tracheal cannulation. Lungs were lavaged with 1 mL of 1×HBSS. The collected BALF was centrifuged, and total cell numbers counted with a hemocytometer. Lungs were removed, and the upper right lobe was minced and incubated at 37° C. for 30 minutes in 1 mL of RPMI 1640 containing Liberase TL (0.5 mg/mL) and DNAse I (0.5 mg/mL). Lung cells were passed through a 70-μm cell strainer with a syringe rubber, and the strainer was washed with 5 mL of RPMI plus DNAse I media. Cells were centrifuged and re-suspended in 1 mL of PBS plus 0.5% BSA plus 2 mmol/L EDTA before being counted on a hemocytometer.

WT BALB/c mice [6] = experiment: Cysteamine therapeutic treatment after HDM-induced asthma is established (Example 2); conditions: cysteamine 50 mg/kg for seven days
Method: WT BALB/c mice underwent 6 intratracheal challenges to an allergen (e.g., HDM (25 μg)) to induce asthma development. Control mice underwent 6 intratracheal challenges to saline instead. The next day a subset of mice received cysteamine (50 mg/kg) treatment for seven days (on challenge days, mice received treatment 30 minutes prior to challenge). See FIG. 2A for the treatment and challenge protocol. The mice were sacrificed 24 hours after the last challenge.
as §1, with “([…]” for “(0,”, “[…]” for “50”
Bronchoalveolar lavage was performed by means of tracheal cannulation. Lungs were lavaged with 1 mL of 1×HBSS. The collected BALF was centrifuged, and total cell numbers were counted with a hemocytometer. Cells were spun onto slides and stained with the HEMA3 stain set. After the slides were cover slipped and de-identified, 200 cells were counted, and the total number of each cell type was calculated.
as §2, with “observe Th2, Th17, and Th1” for “observe Th2/Th17”, “additional 2.5” for “additional two and a half”, “and permeabilization” for “and premeabilization”, “Image an” for “Image and”

[7] = mice with asthma, Cystagon i.p. for 2 weeks

Compound: NCCSSCCN [cystamine]
airway hyper-responsiveness (AHR) development [1]: blocked airway hyper-responsiveness (AHR) development

cysteamine concentration in mouse serum in the time after infusion ended ([2]; mouse serum, after end of cysteamine infusion): rapidly degraded | half-life ([2]; stated in Example 3 results as reason for q.i.d. dosing): short half-life
Compound: NCCS [Cysteamine, 2-aminoethanethiol]
AHR (WT BALB/c mice [3]; WT mice with asthma (6 i.t. HDM), cysteamine 50 mg/kg for seven days): decreased AHR | presence of Th1, Th2, and Th17 cells in the lungs (WT BALB/c mice [3]; WT mice, cysteamine 50 mg/kg for seven days): significantly decreased the presence of Th1, Th2, and Th17 cells | difference between the cysteamine and dexamethasone treatment groups (WT BALB/c mice [3]; cysteamine 50 mg/kg seven days vs dexamethasone 3 mg/kg last four days): no significant differences | asthma development ([1]; VNN1 KO mice): significantly prevented asthma | airway hyper-responsiveness (AHR) development [1]: blocked airway hyper-responsiveness (AHR) development | asthma development ([1]; normal (WT BALB/c) mice): significantly prevented asthma | reducing AHR (WT BALB/c mice [4]; 6.25 mg/kg dose, Cystagon i.p. for 2 weeks, HDM recall challenge): effective at reducing AHR | dose at which maximal effectiveness on AHR was achieved (WT BALB/c mice [4]; Cystagon i.p. for 2 weeks, doses tested 6.25, 12.5, 25, 50 mg/kg): 12.5 mg/kg/day | presence of eosinophils and neutrophils in the bronchoalveolar lavage fluid (WT BALB/c mice [4]; cysteamine at 6.25, 12.5, and 50 mg/kg, i.p. for 2 weeks): significantly decreased the presence of eosinophils and neutrophils | blocking AHR (WT BALB/c mice [4]; mice with asthma (9 i.t. HDM), Cystagon (cysteamine bitartrate) 6.25-50 mg/kg i.p. 3 times every day for 2 weeks, HDM recall challenge): effective at blocking AHR | airway inflammation (WT BALB/c mice [4]; [7]): reduced airway inflammation | presence of pathogenic T effector populations (Th2/Th17) in the lungs (WT BALB/c mice [4]; [7]): significantly decreased the presence of pathogenic T effector populations (Th2/Th17) | AHR (WT BALB/c mice [5]; WT mice with asthma (9 i.t. HDM), cysteamine 6.25 or 12.5 mg/kg oral 4 times a day for 2 weeks, HDM recall challenge): decreased AHR | airway inflammation (BALF counts, lung cells) (WT BALB/c mice [5]; WT mice with asthma, cysteamine 6.25 or 12.5 mg/kg oral 4 times a day for 2 weeks): decreased | oral treatment compared with IP injection (WT BALB/c mice [5]; oral cysteamine 6.25 or 12.5 mg/kg 4 times a day for 2 weeks): equivalent to IP injection | asthma occurrence (WT BALB/c mice [6]; mice with asthma (6 i.t. HDM challenges)): significantly decrease asthma occurrence | airway inflammation (WT BALB/c mice [6]; mice with asthma): reduced airway inflammation | presence of eosinophils and neutrophils in the bronchoalveolar lavage fluid (WT BALB/c mice [6]; mice with asthma): decreased the presence of eosinophils and neutrophils | presence of pathogenic T effector populations (Th2/Th17) in the lungs (WT BALB/c mice [6]; mice with asthma, flow cytometry after PMA+ionomycin): reduction in the presence of pathogenic T effector populations (Th2/Th17) | airway hyper-responsiveness (AHR) development (WT BALB/c mice [6]; mice with asthma, methacholine challenge): blocked airway hyper-responsiveness (AHR) development
